# Test results reported in BindingDB's records for doi:10.1021/jm801354e (University of Illinois At Chicago, 2009).
# Where a name gives a salt, the structure may show the parent alone.
# Target: T1, 5-hydroxytryptamine receptor 2C (Homo sapiens, UniProt P28335)
# T1 sequence (P28335 whole entry): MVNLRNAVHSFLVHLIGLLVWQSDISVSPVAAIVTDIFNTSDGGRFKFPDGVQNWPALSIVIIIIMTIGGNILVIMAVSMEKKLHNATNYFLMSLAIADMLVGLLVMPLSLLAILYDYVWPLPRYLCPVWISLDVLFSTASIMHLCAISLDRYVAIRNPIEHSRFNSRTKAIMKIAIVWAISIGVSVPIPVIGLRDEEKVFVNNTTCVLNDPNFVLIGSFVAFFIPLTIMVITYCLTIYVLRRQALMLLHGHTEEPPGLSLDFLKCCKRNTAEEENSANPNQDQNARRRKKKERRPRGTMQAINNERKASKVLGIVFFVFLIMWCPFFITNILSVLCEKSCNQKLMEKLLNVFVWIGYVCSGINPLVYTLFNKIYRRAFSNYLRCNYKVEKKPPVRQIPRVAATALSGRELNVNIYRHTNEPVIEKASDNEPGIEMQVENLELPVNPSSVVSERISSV
# Test: Agonist activity at human 5HT2C receptor expressed in HEK293 cells assessed as calcium flux by FLIPR assay
row,Structure (SMILES),EC50
1,NC[C@H]1C[C@@H]1c1ccccc1O (relative stereo) [trans-[2-(2-Hydroxyphenyl)cyclopropyl]methylamine Hydrochloride],161 nM
2,"NC[C@H]1C[C@@H]1c1cccc(F)c1F (relative stereo) [trans-[2-(2,3-Difluorophenyl)cyclopropyl]methylamine Hydrochloride]",99 nM
3,Cc1cccc(Cl)c1[C@H]1C[C@@H]1CN (relative stereo) [trans-[2-(2-Chloro-6-methylphenyl)cyclopropyl]methylamine Hydrochloride],3.5 nM
4,NC[C@H]1C[C@@H]1c1ccc(Cl)cc1F (relative stereo) [trans-[2-(4-Chloro-2-fluorophenyl)cyclopropyl]methylamine Hydrochloride],128 nM
5,COc1ccc([C@H]2C[C@@H]2CN)cc1 (relative stereo) [trans-[2-(4-Methoxyphenyl)cyclopropyl]methylamine Hydrochloride],902 nM
6,COc1ccccc1[C@H]1C[C@@H]1CN (relative stereo) [trans-[2-(2-Methoxyphenyl)cyclopropyl]methylamine Hydrochloride],26 nM
7,NC[C@H]1C[C@@H]1c1ccc2ccccc2c1 (relative stereo) [trans-(2-Naphthalen-2-ylcyclopropyl)methylamine Hydrochloride],2900 nM
8,NC[C@H]1C[C@@H]1c1cccc(Cl)c1 (relative stereo) [trans-[2-(3-Chlorophenyl)cyclopropyl]methylamine Hydrochloride],10 nM
9,"NC[C@H]1C[C@@H]1c1c(F)cccc1F (relative stereo) [trans-[2-(2,6-Difluorophenyl)cyclopropyl]methylamine Hydrochloride]",87 nM
10,Cc1ccc(Cl)c([C@H]2C[C@@H]2CN)c1F [trans-[2-(6-Chloro-2-fluoro-3-methylphenyl)cyclopropyl]methylamineHydrochloride],13 nM
11,Cc1ccc([C@H]2C[C@@H]2CN)cc1 (relative stereo) [trans-[2-(4-Methylphenyl)cyclopropyl]methylamine Hydrochloride],135 nM
12,NC[C@H]1C[C@@H]1c1ccc(C(F)(F)F)cc1 (relative stereo) [trans-[2-(4-Trifluoromethylphenyl)cyclopropyl]methylamine Hydrochloride],779 nM
13,COc1cccc([C@H]2C[C@@H]2CN)c1 (relative stereo) [trans-[2-(3-Methoxyphenyl)cyclopropyl]methylamine Hydrochloride],16 nM
14,"Cc1ccc([C@H]2C[C@@H]2CN)cc1C (relative stereo) [trans-[2-(3,4-Dimethylphenyl)cyclopropyl]methylamine Hydrochloride]",35 nM
15,NC[C@H]1C[C@H]1c1ccccc1 (racemic) [(+/-)-Cis-(2-Phenylcyclopropyl)methylamineHydrochloride],3020 nM
16,NC[C@H]1C[C@@H]1c1cccc(F)c1 (relative stereo) [trans-[2-(3-Fluorophenyl)cyclopropyl]methylamine Hydrochloride],3.3 nM
17,"Cc1cccc([C@H]2C[C@@H]2CN)c1C (relative stereo) [trans-[2-(2,3-Dimethylphenyl)cyclopropyl]methylamine Hydrochloride]",7 nM
18,Cc1cc([C@H]2C[C@@H]2CN)ccc1F (relative stereo) [trans-[2-(4-Fluoro-3-methylphenyl)cyclopropyl]methylamine Hydrochloride],6 nM

# Target: 5-hydroxytryptamine receptor 2A (Homo sapiens, UniProt P28223)
# Test: Agonist activity at human 5HT2A receptor expressed in HEK293 cells assessed as calcium flux by FLIPR assay
# Sequence of 5-hydroxytryptamine receptor 2A (P28223 whole entry): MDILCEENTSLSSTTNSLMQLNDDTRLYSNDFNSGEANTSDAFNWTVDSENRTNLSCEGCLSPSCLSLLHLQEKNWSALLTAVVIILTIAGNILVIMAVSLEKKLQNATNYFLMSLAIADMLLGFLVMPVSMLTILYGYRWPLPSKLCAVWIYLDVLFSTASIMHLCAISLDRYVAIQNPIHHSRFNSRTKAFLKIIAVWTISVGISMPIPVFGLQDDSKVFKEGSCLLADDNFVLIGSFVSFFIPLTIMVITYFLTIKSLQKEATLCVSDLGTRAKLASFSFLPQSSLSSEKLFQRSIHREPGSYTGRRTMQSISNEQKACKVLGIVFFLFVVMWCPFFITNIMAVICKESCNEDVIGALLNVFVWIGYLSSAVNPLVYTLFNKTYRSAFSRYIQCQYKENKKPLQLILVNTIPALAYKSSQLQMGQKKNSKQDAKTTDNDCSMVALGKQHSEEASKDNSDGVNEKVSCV
row,Structure (SMILES),EC50
1,NC[C@H]1C[C@@H]1c1ccccc1O (relative stereo) [trans-[2-(2-Hydroxyphenyl)cyclopropyl]methylamine Hydrochloride],513 nM
2,"NC[C@H]1C[C@@H]1c1cccc(F)c1F (relative stereo) [trans-[2-(2,3-Difluorophenyl)cyclopropyl]methylamine Hydrochloride]",> 5000 nM
3,Cc1cccc(Cl)c1[C@H]1C[C@@H]1CN (relative stereo) [trans-[2-(2-Chloro-6-methylphenyl)cyclopropyl]methylamine Hydrochloride],726 nM
4,NC[C@H]1C[C@@H]1c1ccc(Cl)cc1F (relative stereo) [trans-[2-(4-Chloro-2-fluorophenyl)cyclopropyl]methylamine Hydrochloride],774 nM
5,COc1ccccc1[C@H]1C[C@@H]1CN (relative stereo) [trans-[2-(2-Methoxyphenyl)cyclopropyl]methylamine Hydrochloride],2170 nM
6,NC[C@H]1C[C@@H]1c1cccc(Cl)c1 (relative stereo) [trans-[2-(3-Chlorophenyl)cyclopropyl]methylamine Hydrochloride],1890 nM
7,"NC[C@H]1C[C@@H]1c1c(F)cccc1F (relative stereo) [trans-[2-(2,6-Difluorophenyl)cyclopropyl]methylamine Hydrochloride]",> 1000 nM
8,Cc1ccc(Cl)c([C@H]2C[C@@H]2CN)c1F [trans-[2-(6-Chloro-2-fluoro-3-methylphenyl)cyclopropyl]methylamineHydrochloride],330 nM
9,Cc1ccc([C@H]2C[C@@H]2CN)cc1 (relative stereo) [trans-[2-(4-Methylphenyl)cyclopropyl]methylamine Hydrochloride],1930 nM
10,COc1cccc([C@H]2C[C@@H]2CN)c1 (relative stereo) [trans-[2-(3-Methoxyphenyl)cyclopropyl]methylamine Hydrochloride],613 nM
11,"Cc1ccc([C@H]2C[C@@H]2CN)cc1C (relative stereo) [trans-[2-(3,4-Dimethylphenyl)cyclopropyl]methylamine Hydrochloride]",2390 nM
12,NC[C@H]1C[C@@H]1c1cccc(F)c1 (relative stereo) [trans-[2-(3-Fluorophenyl)cyclopropyl]methylamine Hydrochloride],437 nM
13,"Cc1cccc([C@H]2C[C@@H]2CN)c1C (relative stereo) [trans-[2-(2,3-Dimethylphenyl)cyclopropyl]methylamine Hydrochloride]",360 nM
14,Cc1cc([C@H]2C[C@@H]2CN)ccc1F (relative stereo) [trans-[2-(4-Fluoro-3-methylphenyl)cyclopropyl]methylamine Hydrochloride],235 nM

# Target: 5-hydroxytryptamine receptor 2B (Homo sapiens, UniProt P41595)
# Test: Agonist activity at human 5HT2B receptor expressed in HEK293 cells assessed as calcium flux by FLIPR assay
# Sequence of 5-hydroxytryptamine receptor 2B (P41595 whole entry): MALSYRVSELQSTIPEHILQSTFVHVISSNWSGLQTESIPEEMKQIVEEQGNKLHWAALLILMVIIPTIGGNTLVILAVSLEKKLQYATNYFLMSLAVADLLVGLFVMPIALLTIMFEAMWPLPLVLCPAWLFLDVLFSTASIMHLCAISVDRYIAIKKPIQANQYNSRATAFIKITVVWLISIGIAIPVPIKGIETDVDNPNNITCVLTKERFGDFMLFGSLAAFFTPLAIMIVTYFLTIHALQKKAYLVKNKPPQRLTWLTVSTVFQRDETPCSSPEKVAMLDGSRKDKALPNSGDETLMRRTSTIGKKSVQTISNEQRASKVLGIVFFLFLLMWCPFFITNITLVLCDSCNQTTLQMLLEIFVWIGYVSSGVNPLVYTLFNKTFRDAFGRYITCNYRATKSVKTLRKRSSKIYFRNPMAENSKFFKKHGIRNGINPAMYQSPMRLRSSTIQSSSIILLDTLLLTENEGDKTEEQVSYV
row,Structure (SMILES),EC50
1,NC[C@H]1C[C@@H]1c1ccccc1O (relative stereo) [trans-[2-(2-Hydroxyphenyl)cyclopropyl]methylamine Hydrochloride],492 nM
2,"NC[C@H]1C[C@@H]1c1cccc(F)c1F (relative stereo) [trans-[2-(2,3-Difluorophenyl)cyclopropyl]methylamine Hydrochloride]",366 nM
3,Cc1cccc(Cl)c1[C@H]1C[C@@H]1CN (relative stereo) [trans-[2-(2-Chloro-6-methylphenyl)cyclopropyl]methylamine Hydrochloride],7 nM
4,NC[C@H]1C[C@@H]1c1ccc(Cl)cc1F (relative stereo) [trans-[2-(4-Chloro-2-fluorophenyl)cyclopropyl]methylamine Hydrochloride],459 nM
5,COc1ccccc1[C@H]1C[C@@H]1CN (relative stereo) [trans-[2-(2-Methoxyphenyl)cyclopropyl]methylamine Hydrochloride],199 nM
6,NC[C@H]1C[C@@H]1c1ccc2ccccc2c1 (relative stereo) [trans-(2-Naphthalen-2-ylcyclopropyl)methylamine Hydrochloride],510 nM
7,NC[C@H]1C[C@@H]1c1cccc(Cl)c1 (relative stereo) [trans-[2-(3-Chlorophenyl)cyclopropyl]methylamine Hydrochloride],59 nM
8,"NC[C@H]1C[C@@H]1c1c(F)cccc1F (relative stereo) [trans-[2-(2,6-Difluorophenyl)cyclopropyl]methylamine Hydrochloride]",3340 nM
9,Cc1ccc(Cl)c([C@H]2C[C@@H]2CN)c1F [trans-[2-(6-Chloro-2-fluoro-3-methylphenyl)cyclopropyl]methylamineHydrochloride],116 nM
10,Cc1ccc([C@H]2C[C@@H]2CN)cc1 (relative stereo) [trans-[2-(4-Methylphenyl)cyclopropyl]methylamine Hydrochloride],37 nM
11,NC[C@H]1C[C@@H]1c1ccc(C(F)(F)F)cc1 (relative stereo) [trans-[2-(4-Trifluoromethylphenyl)cyclopropyl]methylamine Hydrochloride],> 1000 nM
12,COc1cccc([C@H]2C[C@@H]2CN)c1 (relative stereo) [trans-[2-(3-Methoxyphenyl)cyclopropyl]methylamine Hydrochloride],75 nM
13,"Cc1ccc([C@H]2C[C@@H]2CN)cc1C (relative stereo) [trans-[2-(3,4-Dimethylphenyl)cyclopropyl]methylamine Hydrochloride]",12 nM
14,NC[C@H]1C[C@H]1c1ccccc1 (racemic) [(+/-)-Cis-(2-Phenylcyclopropyl)methylamineHydrochloride],> 10000 nM
15,NC[C@H]1C[C@@H]1c1cccc(F)c1 (relative stereo) [trans-[2-(3-Fluorophenyl)cyclopropyl]methylamine Hydrochloride],3.6 nM
16,"Cc1cccc([C@H]2C[C@@H]2CN)c1C (relative stereo) [trans-[2-(2,3-Dimethylphenyl)cyclopropyl]methylamine Hydrochloride]",8.4 nM
17,Cc1cc([C@H]2C[C@@H]2CN)ccc1F (relative stereo) [trans-[2-(4-Fluoro-3-methylphenyl)cyclopropyl]methylamine Hydrochloride],4.9 nM
